Experimental data: patent publication US20260008760A1, “DIPEPTIDYL PEPTIDASE 1 INHIBITORS AND USES THEREOF” (Insmed Incorporated, priority 2024, published 2026)
Values joined by “and” are separate entries in the source; they are usually repeats but may differ in a detail not shown here. Equal entries are not always repeated. Where two headings read alike, the source gives them in different places.

Key:
active mouse DPP1 enzyme = target: T1, active mouse DPP1 enzyme (Mus musculus, UniProt P97821); assay: Mouse DPP1 Enzyme IC50 Assay; assay type: biochemical
T1 construct: Each subunit is composed of an N-terminal fragment, a heavy chain and a light chain; purchased R&D Systems
Experimental: Example 96: Mouse DPP1 Enzyme IC50 Assay
Test articles were applied to active mouse DPP1 enzyme (R&D Systems; Minneapolis, MN) in Assay Buffer (50 mM MES pH 5.5, 50 mM NaCl, 5 mM DTT) in a total reaction volume of 125 μL. 25 μL of compound in Assay Buffer plus […] was first added to 50 μL of active mouse DPP1 enzyme at a concentration of 62.5 pg/μL and allowed to pre-incubate for 10 minutes at 37° C. after which 50 μL of […] H-Gly-Arg-AMC substrate (Bachem; St. Torrance, CA) was added, giving final substrate concentration of 400 µM and a final DMSO concentration of […]. Substrate cleavage was measured for 90 minutes at 37° C., with fluorescence at Excitation/Emission 350/450 nm measured every 5 minutes. DPP1 concentration was interpolated based on its activity relative to a standard curve of recombinant active mouse DPP enzyme. IC50 values for each compound were calculated via the XLFit (IDBS Version 5.3.1.3) Add-On to Microsoft Excel using the four parameter fit equation y=(A+((B−A)/(1+((C/x)^D)))), which appears as equation number 205 (4 Parameter Logistic Model or Sigmoidal Dose-Response Model) in XLFit. Default constraints were used for each Parameter. IC50 was defined as the compound concentration at which 50% of enzyme activity was inhibited when compared to the no-compound control.
In Table 2, *** represent average IC50≤5 nM, ** represents average IC50 in the range of 5-20 nM, and * represents average IC50 in the range of ≥20 nM, where the designations were made solely based on the average value without taking into account of the standard deviations.

DPP1 in HL-60 cells [1] = target: T2, DPP1 in HL-60 cells (Homo sapiens, UniProt P53634); assay: DPP1 Cell IC50 assay; assay type: cell-based; set-up: host or cells: HL-60 cells; conditions: 60 min pre-incubation, H-Gly-Phe-AFC substrate, average of n runs
Outline: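 HL-60 cells in PBS (5×10^5 live cells per mL) pre-incubated with compound (0.5% DMSO) 60 min at 37° C, 5% CO2, then H-Gly-Phe-AFC substrate (500 μM stock) added for 30 min. Fluorescence at 400/505 nm; % inhibition vs vehicle wells, IC50 from four-parameter logistic fit.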

human DPP1 enzyme [2] = target: T3, human DPP1 enzyme (Homo sapiens, UniProt P53634); assay: Human DPP1 Enzyme IC50 Assay; assay type: biochemical; set-up: was first proteolytically processed into its mature form using recombinant human cathepsin L; purchased R&D Systems
Outline: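 Recombinant human DPP1, pre-activated with cathepsin L (pH 4.5), was preincubated with compound 10 min at 37 °C in MES pH 6.0, 50 mM NaCl, 5 mM DTT, 1% DMSO. Cleavage of 400 μM (final) H-Gly-Arg-AMC followed by fluorescence (350/450 nm) over 90 min at 37 °C; IC50 from four-parameter logistic fit versus no-compound control.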
Target sequence in this assay (P53634 25-134 limits assumed): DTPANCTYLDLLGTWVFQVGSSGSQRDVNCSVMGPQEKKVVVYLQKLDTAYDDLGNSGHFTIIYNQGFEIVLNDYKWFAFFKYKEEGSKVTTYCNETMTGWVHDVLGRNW
Target sequence in this assay (P53634 231-394 limits assumed): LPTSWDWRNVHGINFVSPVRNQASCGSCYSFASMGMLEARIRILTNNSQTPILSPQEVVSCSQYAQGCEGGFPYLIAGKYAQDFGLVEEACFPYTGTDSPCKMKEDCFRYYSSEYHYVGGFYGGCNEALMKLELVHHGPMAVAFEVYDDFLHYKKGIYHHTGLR
Target sequence in this assay (P53634 395-463 limits assumed): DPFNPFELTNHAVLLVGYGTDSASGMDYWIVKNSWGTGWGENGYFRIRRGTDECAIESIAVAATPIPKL

DPP1 in HL-60 cells [3] = target: T2, DPP1 in HL-60 cells; assay: DPP1 Cell Single-Point Percent Inhibition Testing; assay type: cell-based; set-up: host or cells: HL-60 cells; conditions: final compound concentration 5 nM, n = 1
Outline: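 HL-60 cells in unsupplemented RPMI preincubated 60 min at 37 °C with test article (5 nM final, 0.1% DMSO), then given cell-permeable H-Gly-Phe-AFC (100 μM final) for 30 min. Fluorescence at 400/505 nm; percent inhibition versus vehicle after subtracting cell-free background and 10 μM brensocatib non-specific signal.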

human DPP1 enzyme [4] = target: T3, human DPP1 enzyme; assay: Human DPP1 Enzyme Single-Point Percent Inhibition Testing (HL-60 lysate); assay type: biochemical; set-up: A crude lysate of HL-60 cells (ATCC; Manassas, VA) was used as a source of human DPP1 enzyme; host or cells: HL-60 cells (crude lysate); conditions: final compound concentration of 10 nM, 400 μM H-Gly-Arg-AMC, n = 1
Outline: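 Enzyme source was HL-60 cell lysate in MES pH 6.0 buffer with NaCl and DTT, pre-incubated 10 min at 37° C with 10 nM compound (final, 1% DMSO). Cleavage of 400 μM H-Gly-Arg-AMC was followed at 350/450 nm over 90 min at 37° C, and percent inhibition was taken against vehicle wells.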
Target sequence in this assay (P53634 25-463): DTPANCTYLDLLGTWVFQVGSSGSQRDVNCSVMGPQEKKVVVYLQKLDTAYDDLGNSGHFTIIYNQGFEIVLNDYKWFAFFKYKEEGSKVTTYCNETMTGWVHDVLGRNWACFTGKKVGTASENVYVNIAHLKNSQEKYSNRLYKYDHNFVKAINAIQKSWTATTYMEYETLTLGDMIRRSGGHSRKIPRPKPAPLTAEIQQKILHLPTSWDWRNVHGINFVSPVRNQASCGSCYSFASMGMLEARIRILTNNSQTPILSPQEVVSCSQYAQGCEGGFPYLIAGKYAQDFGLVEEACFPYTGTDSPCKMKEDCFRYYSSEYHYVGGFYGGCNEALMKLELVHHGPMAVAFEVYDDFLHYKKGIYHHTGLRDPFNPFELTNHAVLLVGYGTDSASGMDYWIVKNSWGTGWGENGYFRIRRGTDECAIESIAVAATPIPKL

[5] = active mouse DPP1 enzyme, H-Gly-Arg-AMC substrate, 10 minutes pre-incubation at 37° C., pH 5.5, average of n runs, read-out: Avg. IC50 (Mouse DPP1 enzyme IC50 value ranges)
[6] = read-out: Avg. IC50 (DPP1 Cell IC50 value ranges)
[7] = activated recombinant human DPP1, 400 μM H-Gly-Arg-AMC, 10 minutes pre-incubation at 37° C., pH 6.0, average of n runs, read-out: Avg. IC50 (Human DPP1 enzyme IC50 value ranges)

T1 sequence (P97821 25-134 limits assumed): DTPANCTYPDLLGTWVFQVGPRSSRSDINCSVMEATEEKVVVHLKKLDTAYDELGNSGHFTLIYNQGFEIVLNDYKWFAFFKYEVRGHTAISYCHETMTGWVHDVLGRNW
T1 sequence (P97821 231-393 limits assumed): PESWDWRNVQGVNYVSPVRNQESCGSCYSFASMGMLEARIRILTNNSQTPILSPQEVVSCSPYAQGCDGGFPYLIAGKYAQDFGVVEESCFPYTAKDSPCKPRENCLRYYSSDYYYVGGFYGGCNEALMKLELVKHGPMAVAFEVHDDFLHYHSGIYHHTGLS
T1 sequence (P97821 394-462 limits assumed): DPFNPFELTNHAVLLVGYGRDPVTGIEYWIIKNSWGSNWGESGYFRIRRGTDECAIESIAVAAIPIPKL
T2 sequence (P53634 25-463): as the sequence (P53634 25-463) above

Row | SMILES | IC50 (active mouse DPP1 enzyme; [5]) | IC50 (DPP1 in HL-60 cells [1]; [6]) | IC50 (human DPP1 enzyme [2]; [7]) | IC50 (active mouse DPP1 enzyme) | IC50 (DPP1 in HL-60 cells [1]; Avg. IC50 (DPP1 Cell IC50 value ranges)) | IC50 (human DPP1 enzyme [2]) | inhibition at 0.005 µM (DPP1 in HL-60 cells [3]) | inhibition at 0.01 µM (human DPP1 enzyme [4])
1 | Cc1cn2cc(-c3ccc(C[C@@H](C#N)NC(=O)[C@@H]4CNCCCCO4)c(F)c3)cc2c(C)n1 [Compound A28, (2S)—N-[(1S)-1-cyano-2-(4-{1,3-dimethylpyrrolo[1,2-a]pyrazin-7-yl}-2-fluorophenyl)ethyl]-1,4-oxazocane-2-carboxamide] | > 20 nM | 1 to 2.5 nM | > 15 nM |  |  |  |  | 
2 | Cn1nc(F)c2ccc(-c3ccc(C[C@@H](C#N)NC(=O)[C@@H]4CNCCCO4)cc3)cc21 [Compound A1, (S)—N—((S)-1-cyano-2-(4-(3-fluoro-1-methyl-1H-indazol-6-yl)phenyl)ethyl)-1,4-oxazepane-2-carboxamide] | > 20 nM | > 2.5 nM | > 15 nM |  |  |  |  | 
3 | N#Cc1ccc2c(c1)COc1cc(CC(C#N)NC(=O)[C@@H]3CNCCCCO3)c(F)cc1-2 (single isomer, unassigned) [Compound B9] | 5 to 20 nM | 1 to 2.5 nM | 5 to 15 nM and > 15 nM |  |  |  |  | 
4 | N#Cc1ccc(-c2ccc(C[C@@H](C#N)NC(=O)[C@@H]3CNCCCO3)cc2)cc1C1CC1 [Compound 8, (2S)—N-[(1S)-1-cyano-2-{4′-cyano-3′-cyclopropyl-[1,1′-biphenyl]-4-yl}ethyl]-1,4-oxazepane-2-carboxamide] | > 20 nM | > 2.5 nM | > 15 nM |  |  |  |  | 
5 | CN1CCN(S(=O)(=O)c2ccc(-c3ccc(C[C@@H](C#N)NC(=O)[C@@H]4CNCCCO4)c(F)c3)cc2)CC1 [Compound 21, (2S)—N-[(1S)-1-cyano-2-[3-fluoro-4′-(4-methylpiperazin-1-ylsulfonyl)-[1,1′-biphenyl]-4-yl]ethyl]-1,4-oxazepane-2-carboxamide] | > 20 nM | > 2.5 nM | > 15 nM |  |  |  |  | 
6 | N#C[C@H](Cc1ccc(-c2ccc3c(n2)CCCN3)cc1)NC(=O)[C@@H]1CNCCCO1 [Compound A10, (2S)—N-[(1S)-1-cyano-2-[4-(5,6,7,8-tetrahydro-1,5-naphthyridin-2-yl)phenyl]ethyl]-1,4-oxazepane-2-carboxamide] | > 20 nM | > 2.5 nM | > 15 nM |  |  |  |  | 
7 | N#Cc1ccc2c(c1)COc1cc(CC(C#N)NC(=O)[C@@H]3CNCCCCO3)c(F)cc1-2 (stereo partly drawn) [Compound B7, (2S)—N-(1-cyano-2-(8-cyano-2-fluoro-6H-benzo[c]chromen-3-yl)ethyl)-1,4-oxazocane-2-carboxamide] | > 20 nM | > 2.5 nM | > 15 nM |  |  |  |  | 
8 | N#C[C@H](Cc1ccc(-c2ccc3c(c2)CCCS3)cc1)NC(=O)[C@@H]1CNCCCO1 [Compound A5, (2S)—N-[(1S)-1-cyano-2-[4-(3,4-dihydro-2H-1-benzothiopyran-6-yl)phenyl]ethyl]-1,4-oxazepane-2-carboxamide] | > 20 nM | > 2.5 nM | > 15 nM |  |  |  |  | 
9 | CN1CCC2(CCc3cc(-c4ccc(C[C@@H](C#N)NC(=O)[C@@H]5CNCCCO5)cc4)ccc32)CC1 [Compound 26, (2S)—N-[(1S)-1-cyano-2-(4-{1′-methyl-2,3-dihydrospiro[indene-1,4′-piperidin]-5-yl}phenyl)ethyl]-1,4-oxazepane-2-carboxamide] | > 20 nM | > 2.5 nM | > 15 nM |  |  |  |  | 
10 | CO[C@@H]1CCNC[C@@H](C(=O)N[C@H](C#N)Cc2ccc(-c3ccc(C#N)cc3)cc2F)OC1 [Compound F4, (2S,7R)—N—((S)-1-cyano-2-(4′-cyano-3-fluoro-[1,1′-biphenyl]-4-yl)ethyl)-7-methoxy-1,4-oxazocane-2-carboxamide] | < 5 nM | < 1 nM | < 5 nM |  |  |  |  | 
11 | N#C[C@H](Cc1cc2c(cc1F)-c1cc(C3COC3)c(F)cc1CO2)NC(=O)[C@@H]1CNCCCO1 [Compound B2, (2S)—N-{1-cyano-2-[2,8-difluoro-9-(oxetan-3-yl)-6H-benzo[c]chromen-3-yl]ethyl}-1,4-oxazepane-2-carboxamide] |  |  |  | 5 to 20 nM | 1 to 2.5 nM | 5 to 15 nM |  | 
12 | Cc1csc(-c2ccc(C[C@@H](C#N)NC(=O)[C@@H]3CNCCCO3)cc2)n1 [Compound 11, (2S)—N-[(1S)-1-cyano-2-[4-(4-methyl-1,3-thiazol-2-yl)phenyl]ethyl]-1,4-oxazepane-2-carboxamide] | > 20 nM | > 2.5 nM | > 15 nM |  |  |  |  | 
13 | CO[C@@H]1CCNC[C@@H](C(=O)N[C@H](C#N)Cc2ccc(-c3cc4c(C)nc(C)cn4c3)cc2F)OC1 [Compound A47, (2S,7R)—N-[(1S)-1-cyano-2-(4-{1,3-dimethylpyrrolo[1,2-a]pyrazin-7-yl}-2-fluorophenyl)ethyl]-7-methoxy-1,4-oxazocane-2-carboxamide] | < 5 nM | 1 to 2.5 nM | < 5 nM |  |  |  |  | 
14 | CN1C(=O)CCc2cc(-c3ccc(C[C@@H](C#N)NC(=O)[C@@H]4CNCCCO4)cc3)ccc21 [Compound A21, (2S)—N-[(1S)-1-cyano-2-[4-(1-methyl-2-oxo-3,4-dihydroquinolin-6-yl)phenyl]ethyl]-1,4-oxazepane-2-carboxamide] | > 20 nM | > 2.5 nM | > 15 nM |  |  |  |  | 
15 | CCN1C(=O)Cc2ccc(-c3ccc(C[C@@H](C#N)NC(=O)[C@@H]4CNCCCO4)cc3)cc21 [Compound 32, (2S)—N-[(1S)-1-cyano-2-[4-(1-ethyl-2-oxo-3H-indol-6-yl)phenyl]ethyl]-1,4-oxazepane-2-carboxamide] | > 20 nM |  |  |  |  |  |  | 
16 | CO[C@@H]1CCNC[C@@H](C(=O)N[C@H](C#N)Cc2ccc(-c3ccc4c(c3)C3(CCN(C5COC5)CC3)OC4)cc2F)OC1 [Compound F6] |  | > 2.5 nM | < 5 nM |  |  |  | ≤ 76.5% | ≥ 66.7%
17 | CCN1C(=O)Cc2ccc(-c3ccc(C[C@@H](C#N)NC(=O)[C@@H]4CNCC[C@@H](OC)CO4)c(F)c3)cc21 [Compound G2] |  | 1 to 2.5 nM | < 5 nM |  |  |  | ≤ 76.5% | ≥ 66.7%
18 | N#C[C@H](Cc1cc2c(cc1F)-c1cc3c(cc1CO2)COC31CCN(C2COC2)CC1)NC(=O)[C@@H]1CNCCCCO1 [Compound C32] |  | > 2.5 nM | < 5 nM |  |  |  | ≤ 76.5% | ≥ 66.7%
19 | N#C[C@H](Cc1cc2c(cc1F)-c1cc3c(cc1CO2)COC31CCN(C2COC2)CC1)NC(=O)[C@@H]1CNCCCO1 [Compound C31] |  | > 2.5 nM | < 5 nM |  |  |  | ≤ 76.5% | ≥ 66.7%
20 | COC1CNC[C@@H](C(=O)N[C@H](C#N)Cc2ccc(-c3cc4c(C)nc(C)cn4c3)cc2F)OC1 (stereo partly shown) [Compound A88] |  | 1 to 2.5 nM | < 5 nM |  |  |  | 76.5 to 93.9% | ≥ 66.7%
21 | CN1CC[C@]2(C1)C(=O)OCc1ccc(-c3ccc(C[C@@H](C#N)NC(=O)[C@@H]4CNCCCO4)cc3)cc12 [Compound I2] |  | > 2.5 nM | 5 to 15 nM |  |  |  | ≤ 76.5% | 40 to 66.7%
